Source: ChEMBL document CHEMBL5360655, “Design, Synthesis, and Biological Evaluation of Novel P2X7 Receptor Antagonists for the Treatment of Septic Acute Kidney Injury” (J Med Chem, 2023)
The source made the active and inactive calls. No cut-off for these calls is given here.

Columns and labels:
Format in all cases: cell-based
[1] = target: T1, P2X purinoceptor 7 (Homo sapiens) (UniProt Q99572); assay: Antagonist activity at human P2X7 receptor expressed in HEK293 cells assessed as inhibition of ATP-induced receptor pore formation at 10 uM by propidium iodide dye uptake based fluorescence analysis
T1 sequence (whole entry): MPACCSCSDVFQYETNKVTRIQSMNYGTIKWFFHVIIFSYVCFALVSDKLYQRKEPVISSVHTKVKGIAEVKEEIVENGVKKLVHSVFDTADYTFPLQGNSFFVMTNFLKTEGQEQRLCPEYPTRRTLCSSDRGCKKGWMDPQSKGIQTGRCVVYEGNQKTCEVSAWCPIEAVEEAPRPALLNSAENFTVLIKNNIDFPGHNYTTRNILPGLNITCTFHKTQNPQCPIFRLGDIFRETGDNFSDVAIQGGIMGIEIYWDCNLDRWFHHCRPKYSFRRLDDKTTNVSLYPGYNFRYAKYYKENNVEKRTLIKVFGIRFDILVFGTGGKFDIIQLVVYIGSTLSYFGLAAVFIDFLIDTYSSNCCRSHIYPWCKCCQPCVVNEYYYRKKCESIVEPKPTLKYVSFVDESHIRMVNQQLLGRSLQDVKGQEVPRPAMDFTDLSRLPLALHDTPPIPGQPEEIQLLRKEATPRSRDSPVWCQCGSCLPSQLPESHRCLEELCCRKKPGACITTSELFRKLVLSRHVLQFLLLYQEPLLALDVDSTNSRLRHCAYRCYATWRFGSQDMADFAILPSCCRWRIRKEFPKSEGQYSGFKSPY

[2] = target: T2, P2X purinoceptor 7 (Mus musculus) (UniProt Q9Z1M0); assay: Antagonist activity at mouse P2X7 receptor expressed in HEK293 cells assessed as inhibition of ATP-induced receptor pore formation at 10 uM by propidium iodide dye uptake based fluorescence analysis
T2 sequence (whole entry): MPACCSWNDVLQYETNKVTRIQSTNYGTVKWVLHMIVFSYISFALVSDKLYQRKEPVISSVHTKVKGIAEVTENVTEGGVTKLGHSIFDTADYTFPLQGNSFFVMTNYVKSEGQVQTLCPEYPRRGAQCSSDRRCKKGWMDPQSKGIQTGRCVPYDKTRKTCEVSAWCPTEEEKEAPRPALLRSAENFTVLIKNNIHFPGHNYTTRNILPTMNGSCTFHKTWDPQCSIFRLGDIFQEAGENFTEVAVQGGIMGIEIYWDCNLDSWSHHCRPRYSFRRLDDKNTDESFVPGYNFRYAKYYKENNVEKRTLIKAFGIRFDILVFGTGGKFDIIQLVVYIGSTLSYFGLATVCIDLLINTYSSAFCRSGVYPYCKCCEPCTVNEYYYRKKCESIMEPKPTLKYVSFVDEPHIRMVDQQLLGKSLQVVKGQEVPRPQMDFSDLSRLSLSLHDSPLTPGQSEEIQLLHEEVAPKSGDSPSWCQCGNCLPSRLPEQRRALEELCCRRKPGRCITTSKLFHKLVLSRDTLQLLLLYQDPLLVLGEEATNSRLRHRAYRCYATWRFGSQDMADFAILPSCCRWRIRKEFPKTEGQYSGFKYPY

P2X purinoceptor 7 [3] = target: T3, P2X purinoceptor 7 (Homo sapiens, UniProt Q99572); assay: Antagonist activity at human P2X7 receptor expressed in HEK293 cells assessed as inhibition of ATP-induced receptor pore formation by propidium iodide dye uptake based fluorescence analysis
T3 sequence (Q99572 whole entry): T1 sequence (whole entry)

[4] = target: T2, P2X purinoceptor 7 (Mus musculus); assay: Antagonist activity at mouse P2X7 receptor expressed in HEK293 cells assessed as inhibition of ATP-induced receptor pore formation at 1 uM by propidium iodide dye uptake based fluorescence analysis
[5] = target: T1, P2X purinoceptor 7 (Homo sapiens); assay: Antagonist activity at human P2X7 receptor expressed in HEK293 cells assessed as inhibition of ATP-induced receptor pore formation at 200 nM by propidium iodide dye uptake based fluorescence analysis
[6] = target: T2, P2X purinoceptor 7 (Mus musculus); assay: Antagonist activity at mouse P2X7 receptor expressed in HEK293 cells assessed as inhibition of ATP-induced receptor pore formation at 200 nM by propidium iodide dye uptake based fluorescence analysis
[7] = target: T1, P2X purinoceptor 7 (Homo sapiens); assay: Antagonist activity at human P2X7 receptor expressed in HEK293 cells assessed as inhibition of ATP-induced receptor pore formation at 1 uM by propidium iodide dye uptake based fluorescence analysis
P2X purinoceptor 7 [8] = target: T4, P2X purinoceptor 7 (Mus musculus, UniProt Q9Z1M0); assay: Antagonist activity at mouse P2X7 receptor expressed in HEK293 cells assessed as inhibition of ATP-induced receptor pore formation by propidium iodide dye uptake based fluorescence analysis
T4 sequence (Q9Z1M0 whole entry): T2 sequence (whole entry)

Row | SMILES | inhibition [4] | inhibition [5] | inhibition [6] | inhibition [7] | inhibition ([4]; filed as antagonist) | IC50 (P2X purinoceptor 7 [8]) | further results
1 | O=C(NCc1cn(-c2cc(Cl)ccn2)nn1)c1ccccc1Cl | – | – | – | – | – | – | inhibition [1]: inactive; inhibition [2]: inactive
2 | Nc1cccc(-c2ncc(C(=O)NCc3cn(-c4cc(Cl)ccn4)nn3)s2)c1 | 35.2% | 9.8% | 2.9% | – | – | – | IC50 (P2X purinoceptor 7 [3]): 658 nM; inhibition ([7]; filed as antagonist): 57.3%
3 | O=C(NCc1cn(-c2cc(Cl)ccn2)nn1)c1cc(-c2cccc3[nH]ccc23)ccc1Cl | 10.2% | 15.6% | inactive | 34.1% | – | – | –
4 | CS(=O)(=O)Nc1cccc(-c2ncc(C(=O)NCc3cn(-c4cc(Cl)ccn4)nn3)s2)c1 | 17.3% | inactive | inactive | 6.8% | – | – | –
5 | CS(=O)(=O)c1ccc(-c2ncc(C(=O)NCc3cn(-c4cccc(Br)n4)nn3)s2)cc1 | – | inactive | inactive | 6.2% | 52% | 626 nM | –
6 | O=C(NCc1cn(-c2cc(Cl)ccn2)nn1)c1ccc(C(F)(F)F)cc1Cl | – | – | – | – | – | – | inhibition ([1]; filed as antagonist): 45.1%; inhibition [2]: 39.3%
7 | O=C(NCc1cn(-c2cc(Cl)ccn2)nn1)c1ccc(Cl)cc1 | – | – | – | – | – | – | inhibition [1]: inactive; inhibition ([2]; filed as antagonist): 62.8%
8 | CS(=O)(=O)c1ccc(-c2nc(C(=O)NCc3cn(-c4ccc(Br)cn4)nn3)cs2)cc1 | inactive | 11% | inactive | – | – | – | IC50 (P2X purinoceptor 7 [3]): 811 nM; inhibition ([7]; filed as antagonist): 51.6%
9 | CS(=O)(=O)c1ccc(-c2ncc(C(=O)NCc3cn(-c4cc(F)ccn4)nn3)s2)cc1 | – | 37.8% | – | – | 61.8% | 196 nM | inhibition ([6]; filed as antagonist): 68.4%; inhibition ([7]; filed as antagonist): 45.1%
10 | CS(=O)(=O)c1ccc(-c2ncc(C(=O)NCc3cn(-c4ccc(Br)cn4)nn3)s2)cc1 | inactive | 12.4% | inactive | 33.3% | – | – | –
11 | CS(=O)(=O)c1cccc(-c2ncc(C(=O)NCc3cn(-c4cc(Cl)ccn4)nn3)s2)c1 | 25.8% | inactive | inactive | 36.7% | – | – | –
12 | CC(C)Cc1ccc(-c2ccc(Cl)c(C(=O)NCc3cn(-c4cc(Cl)ccn4)nn3)c2)cc1 | – | 20.7% | inactive | 39.2% | 59.3% | 409 nM | –
13 | CS(=O)(=O)Nc1ccc(-c2ccc(Cl)c(C(=O)NCc3cn(-c4cc(Cl)ccn4)nn3)c2)cc1 | – | inactive | inactive | inactive | 45.1% | – | –
14 | CS(=O)(=O)c1ccc(-c2csc(C(=O)NCc3cn(-c4cc(Cl)ccn4)nn3)n2)cc1 | – | 5% | – | – | 74% | 166 nM | inhibition ([6]; filed as antagonist): 55.2%; inhibition ([7]; filed as antagonist): 40.9%
15 | CS(=O)(=O)c1ccc(-c2nc(C(=O)NCc3cn(-c4cccc(Br)n4)nn3)cs2)cc1 | inactive | 10.1% | inactive | – | – | – | IC50 (P2X purinoceptor 7 [3]): 710 nM; inhibition ([7]; filed as antagonist): 53.8%
16 | Nc1ccc(-c2ncc(C(=O)NCc3cn(-c4cc(Cl)ccn4)nn3)s2)cc1 | – | – | – | 39.2% | 60.7% | 188 nM | inhibition ([5]; filed as antagonist): 46.2%; inhibition ([6]; filed as antagonist): 51.7%
17 | CS(=O)(=O)c1ccc(-c2nc(C(=O)NCc3cn(-c4cc(F)ccn4)nn3)cs2)cc1 | – | inactive | 23.3% | 23.2% | 41.9% | – | –

Second part, led by results:

Row | inhibition [4] | inhibition [5] | inhibition [6] | inhibition [7] | inhibition ([4]; filed as antagonist) | IC50 (P2X purinoceptor 7 [8]) | SMILES | further results
18 | – | inactive | 25.6% | inactive | 62.5% | 351 nM | O=C(NCc1cn(-c2cc(Cl)ccn2)nn1)c1cc(-c2cccc3cc[nH]c23)ccc1Cl | –
19 | 9.2% | 13.4% | 17.8% | 23.3% | – | – | Cc1cc(F)ccc1-c1ccc(Cl)c(C(=O)NCc2cn(-c3cc(Cl)ccn3)nn2)c1 | –
20 | inactive | 24.4% | 19.1% | 21.9% | – | – | Nc1cccc(-c2ccc(Cl)c(C(=O)NCc3cn(-c4cc(Cl)ccn4)nn3)c2)c1 | –
